Several values for one entry are separate records, joined by “and”; a condition that tells them apart may be missing. Identical values can stand only once. Inconclusive results and toxic doses are left out.
Test system: BDF1 mice, P388 leukemia ip, median survival T/C
Test: NCI In Vivo Anticancer Drug Screen. Data for tumor model P388 Leukemia (intraperitoneal) in B6D2F1 (BDF1) mice
Conditions: endpoint: median survival time, higher = longer survival
Method in brief: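 Steps: implant the tumour, treat one group with compound and another with vehicle, record survival, then divide treated by control.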

[1] = dose: 100.0 mg/kg/injection, schedule: Q01DX001 (ip), vehicle: other
[2] = dose: 200.0 mg/kg/injection, schedule: Q01DX001 (ip), vehicle: other
[3] = dose: 400.0 mg/kg/injection, schedule: Q01DX001 (ip), vehicle: other
[4] = dose: 50.0 mg/kg/injection, schedule: Q01DX009 (ip), vehicle: saline
[5] = dose: 100.0 mg/kg/injection, schedule: Q01DX009 (ip), vehicle: saline
[6] = dose: 6.25 mg/kg/injection, schedule: Q01DX009 (ip), vehicle: Klucel (hydroxypropylcellulose) (HPC)
[7] = dose: 12.5 mg/kg/injection, schedule: Q01DX009 (ip), vehicle: Klucel (hydroxypropylcellulose) (HPC)
[8] = dose: 25.0 mg/kg/injection, schedule: Q01DX009 (ip), vehicle: Klucel (hydroxypropylcellulose) (HPC)
[9] = dose: 100.0 mg/kg/injection, schedule: Q04DX003 (ip), vehicle: saline with Tween-80
[10] = dose: 200.0 mg/kg/injection, schedule: Q04DX003 (ip), vehicle: saline with Tween-80
[11] = dose: 400.0 mg/kg/injection, schedule: Q04DX003 (ip), vehicle: saline with Tween-80
[12] = dose: 50.0 mg/kg/injection, schedule: Q01DX009 (ip), vehicle: saline with Tween-80
[13] = dose: 100.0 mg/kg/injection, schedule: Q01DX009 (ip), vehicle: saline with Tween-80
[14] = dose: 200.0 mg/kg/injection, schedule: Q01DX009 (ip), vehicle: saline with Tween-80
[15] = dose: 6.25 mg/kg/injection, schedule: Q01DX009 (ip), vehicle: saline
[16] = dose: 12.5 mg/kg/injection, schedule: Q01DX009 (ip), vehicle: saline
[17] = dose: 25.0 mg/kg/injection, schedule: Q01DX009 (ip), vehicle: saline
[18] = dose: 50.0 mg/kg/injection, schedule: Q04DX003 (ip), vehicle: saline
[19] = dose: 100.0 mg/kg/injection, schedule: Q04DX003 (ip), vehicle: saline
[20] = dose: 200.0 mg/kg/injection, schedule: Q04DX003 (ip), vehicle: saline
[21] = dose: 400.0 mg/kg/injection, schedule: Q04DX003 (ip), vehicle: saline
[22] = dose: 100.0 mg/kg/injection, schedule: Q01DX009 (ip), vehicle: Klucel (hydroxypropylcellulose) (HPC)
[23] = dose: 200.0 mg/kg/injection, schedule: Q01DX009 (ip), vehicle: Klucel (hydroxypropylcellulose) (HPC)
[24] = dose: 100.0 mg/kg/injection, schedule: Q04DX003 (ip), vehicle: Klucel (hydroxypropylcellulose) (HPC)
[25] = dose: 200.0 mg/kg/injection, schedule: Q04DX003 (ip), vehicle: Klucel (hydroxypropylcellulose) (HPC)
[26] = dose: 400.0 mg/kg/injection, schedule: Q04DX003 (ip), vehicle: Klucel (hydroxypropylcellulose) (HPC)

Nc1cc(Cl)cc(Cl)c1C(=O)O
T/C [1]: 95 % of control
T/C [2]: 100 % of control
T/C [3]: 95 % of control

CCOC(=O)Cc1csc(NN=C(C)C)n1
T/C [4]: 108 % of control
T/C [5]: 110 % of control

Nc1ccc(S(=O)(=O)c2cc(O)c3ccccc3c2O)cc1
T/C [6]: 118 % of control
T/C [7]: 104 % of control
T/C [8]: 122 % of control

Br/C(=N\Nc1nn[nH]n1)c1ccccc1
T/C [9]: 87 % of control
T/C [10]: 91 % of control
T/C [11]: 91 % of control

COc1cc(O)c2c(c1)C(=O)c1cc3c(c(O)c1C2=O)C(OC1OC(C)C(OC)C(O)C1OC)C(OC)C(C)(O)C3=O (centres undefined)
T/C (dose: 17.5 mg/kg/injection, schedule: Q01DX009 (ip), vehicle: saline): 86 % of control
T/C (dose: 35.0 mg/kg/injection, schedule: Q01DX009 (ip), vehicle: saline): 93 % of control
T/C [12]: 97 % of control
T/C (dose: 70.0 mg/kg/injection, schedule: Q01DX009 (ip), vehicle: saline): 93 % of control
T/C [13]: 120 % of control
T/C [14]: 116 % of control

Cc1nccnc1N
T/C [15]: 94 % of control
T/C [16]: 105 % of control
T/C [17]: 102 % of control
T/C [4]: 102 % of control
T/C [18]: 94 % of control
T/C [5]: 105 % of control
T/C [19]: 98 % of control and 102 % of control
T/C (dose: 150.0 mg/kg/injection, schedule: Q04DX003 (ip), vehicle: saline): 88 % of control
T/C [20]: 100 % of control and 124 % of control
T/C (dose: 300.0 mg/kg/injection, schedule: Q04DX003 (ip), vehicle: saline): 100 % of control

C[n+]1cc2cc(O)c(O)cc2c2ccc3cc(O)c(O)cc3c21
T/C (dose: 20.0 mg/kg/injection, schedule: Q01DX009 (ip), vehicle: saline): 104 % of control
T/C (dose: 40.0 mg/kg/injection, schedule: Q01DX009 (ip), vehicle: saline): 96 % of control
T/C (dose: 80.0 mg/kg/injection, schedule: Q01DX009 (ip), vehicle: saline): 91 % of control
T/C (dose: 120.0 mg/kg/injection, schedule: Q01DX009 (ip), vehicle: saline): 86 % of control
T/C (dose: 240.0 mg/kg/injection, schedule: Q01DX009 (ip), vehicle: saline): 106 % of control

CCCCCCCCSSCCCCCCCC
T/C [19]: 95 % of control
T/C [20]: 100 % of control
T/C [21]: 95 % of control

COc1ccc(C(=O)CC(C#N)c2ccc(OC)cc2)cc1 (centres undefined)
T/C [12]: 106 % of control
T/C [13]: 106 % of control
T/C [14]: 101 % of control

O=C1c2ccccc2C(=O)c2c(NCCN3CCCCC3)ccc(NCCN3CCCCC3)c21
T/C (dose: 50.0 mg/kg/injection, schedule: Q01DX009 (ip), vehicle: other): 115 % of control

c1ccc2cc(-c3cc4ccccc4s3)ccc2c1
T/C (dose: 50.0 mg/kg/injection, schedule: Q01DX010 (ip), vehicle: saline): 95 % of control
T/C [22]: 120 % of control
T/C (dose: 100.0 mg/kg/injection, schedule: Q01DX010 (ip), vehicle: saline): 100 % of control
T/C [23]: 120 % of control
T/C (dose: 200.0 mg/kg/injection, schedule: Q01DX010 (ip), vehicle: saline): 100 % of control
T/C (dose: 400.0 mg/kg/injection, schedule: Q01DX009 (ip), vehicle: Klucel (hydroxypropylcellulose) (HPC)): 115 % of control
T/C (dose: 400.0 mg/kg/injection, schedule: Q01DX010 (ip), vehicle: saline): 100 % of control

CCN=C(N)N=C(N)N
T/C (dose: 100.0 mg/kg/injection, schedule: Q01DX001 (ip), vehicle: saline): 102 % of control

COc1ccc(C=Nc2ccc(OC(C)=O)cc2)cc1
T/C (dose: 45.0 mg/kg/injection, schedule: Q01DX009 (ip), vehicle: Klucel (hydroxypropylcellulose) (HPC)): 105 % of control
T/C [12]: 110 % of control
T/C (dose: 65.0 mg/kg/injection, schedule: Q01DX009 (ip), vehicle: Klucel (hydroxypropylcellulose) (HPC)): 110 % of control
T/C [22]: 110 % of control
T/C [13]: 100 % of control
T/C [19]: 104 % of control
T/C (dose: 150.0 mg/kg/injection, schedule: Q01DX009 (ip), vehicle: Klucel (hydroxypropylcellulose) (HPC)): 105 % of control
T/C [23]: 115 % of control
T/C (dose: 200.0 mg/kg/injection, schedule: Q01DX009 (ip), vehicle: other): 104 % of control
T/C [14]: 120 % of control
T/C [20]: 118 % of control
T/C (dose: 300.0 mg/kg/injection, schedule: Q01DX009 (ip), vehicle: Klucel (hydroxypropylcellulose) (HPC)): 120 % of control
T/C (dose: 400.0 mg/kg/injection, schedule: Q01DX009 (ip), vehicle: other): 95 % of control
T/C [21]: 109 % of control

CCCC[N+](CCCC)(CCCC)CCCC.Cc1ccc([SH2+])c([SH2+])c1.Cc1ccc([SH2+])c([SH2+])c1.[Ni+3]
T/C [1]: 112 % of control
T/C [24]: 109 % of control
T/C [19]: 115 % of control
T/C [2]: 112 % of control
T/C [25]: 118 % of control
T/C [20]: 115 % of control
T/C (dose: 265.0 mg/kg/injection, schedule: Q04DX003 (ip), vehicle: Klucel (hydroxypropylcellulose) (HPC)): 116 % of control
T/C [3]: 112 % of control
T/C [26]: 112 % of control

CC1=NC2=NC(CCCC(=O)OCc3ccccc3)=NC3=CC=CC(=N1)N32
T/C (dose: 25.0 mg/kg/injection, schedule: Q01DX009 (ip), vehicle: saline with Tween-80): 108 % of control
T/C [12]: 110 % of control
T/C [13]: 101 % of control

CS(=O)(=O)OC[C@H](OS(=O)(=O)O)[C@H](COS(C)(=O)=O)OS(=O)(=O)O
T/C (dose: 50.0 mg/kg/injection, schedule: Q04DX003 (ip), vehicle: saline with Tween-80): 110 % of control
T/C [9]: 110 % of control
T/C [10]: 110 % of control

OCc1cnc[nH]1
T/C [6]: 96 % of control
T/C [7]: 91 % of control
T/C [8]: 90 % of control
T/C (dose: 50.0 mg/kg/injection, schedule: Q01DX009 (ip), vehicle: Klucel (hydroxypropylcellulose) (HPC)): 99 % of control

ClCCCN1CCCCC1CCl (centres undefined)
T/C (dose: 3.12 mg/kg/injection, schedule: Q04DX003 (ip), vehicle: saline): 102 % of control
T/C [15]: 242 % of control
T/C [16]: 254 % of control and 96 % of control
T/C (dose: 12.5 mg/kg/injection, schedule: Q04DX003 (ip), vehicle: saline): 151 % of control
T/C (dose: 25.0 mg/kg/injection, schedule: Q04DX003 (ip), vehicle: saline): 236 % of control and 182 % of control
T/C (dose: 40.0 mg/kg/injection, schedule: Q04DX003 (ip), vehicle: saline): 90 % of control

O=C1c2ccccc2CCC12OC2c1ccc(Cl)cc1 (centres undefined)
T/C (dose: 100.0 mg/kg/injection, schedule: Q01DX001 (ip), vehicle: Klucel (hydroxypropylcellulose) (HPC)): 95 % of control
T/C [24]: 100 % of control
T/C [9]: 91 % of control
T/C (dose: 200.0 mg/kg/injection, schedule: Q01DX001 (ip), vehicle: Klucel (hydroxypropylcellulose) (HPC)): 100 % of control
T/C [25]: 104 % of control
T/C [10]: 104 % of control
T/C (dose: 400.0 mg/kg/injection, schedule: Q01DX001 (ip), vehicle: Klucel (hydroxypropylcellulose) (HPC)): 90 % of control
T/C [26]: 104 % of control
T/C [11]: 95 % of control

CC(=O)OCC(=O)C1CCC=CC1OC(C)=O (centres undefined)
T/C [17]: 92 % of control
T/C [4]: 104 % of control
T/C [18]: 95 % of control
T/C [5]: 98 % of control
T/C [19]: 101 % of control
T/C (dose: 200.0 mg/kg/injection, schedule: Q01DX009 (ip), vehicle: saline): 104 % of control
T/C [20]: 98 % of control and 120 % of control
T/C (dose: 400.0 mg/kg/injection, schedule: Q01DX009 (ip), vehicle: saline): 88 % of control
T/C [21]: 93 % of control and 117 % of control

From PubChem BioAssay AID328 (DTP/NCI, 2004)
